Results as given in DBAASP.
≈ marks a conversion by molar mass, not a printed value.

Tests used:
Test in all cases: ≥ marks a high value that may be exact or a test limit, other limits are often not marked, values filed in µg/mL are converted to µM
[1] = tested on: Staphylococcus epidermidis
Bacillus cereus = tested on: Bacillus cereus
Listeria innocua = tested on: Listeria innocua
Pasteurella multocida = tested on: Pasteurella multocida
Micrococcus luteus = tested on: Micrococcus luteus
Leuconostoc lactis = tested on: Leuconostoc lactis
Escherichia coli = tested on: Escherichia coli
Staphylococcus aureus = tested on: Staphylococcus aureus
Streptococcus uberis = tested on: Streptococcus uberis
[2] = tested on: Staphylococcus aureus ATCC 25923
[3] = tested on: Escherichia coli ATCC 25922
[4] = tested on: Pseudomonas aeruginosa CMCCB 10104
[5] = tested on: Candida albicans ATCC 2002
Enterococcus faecalis = tested on: Enterococcus faecalis

| Structure (SMILES) | MIC [1] | MIC (Bacillus cereus) | MIC (Listeria innocua) | MIC (Pasteurella multocida) | MIC (Micrococcus luteus) | MIC (Leuconostoc lactis) | MIC (Escherichia coli) | MIC (Staphylococcus aureus) | MIC (Streptococcus uberis) | MIC [2] | MIC [3] | MIC [4] | MIC [5] | MIC (Enterococcus faecalis) |
| --- | --- | --- | --- | --- | --- | --- | --- | --- | --- | --- | --- | --- | --- | --- |
| CC[C@H](C)[C@H](N)C(=O)N[C@@H](CC(C)C)C(=O)N1CCC[C@H]1C(=O)N[C@@H](Cc1ccccc1)C(=O)N[C@H](C(=O)N[C@@H](C)C(=O)NCC(=O)N[C@H](C(=O)N[C@@H](C)C(=O)N[C@@H](C)C(=O)N[C@@H](CCSC)C(=O)N[C@@H](CCC(=O)O)C(=O)N[C@@H](CCSC)C(=O)N[C@@H](CCC(=O)O)C(=O)N[C@@H](Cc1cnc[nH]1)C(=O)N[C@H](C(=O)N[C@@H](Cc1ccc(O)cc1)C(=O)N[C@H]1CSSC[C@@H](C(=O)O)NC(=O)[C@H](CCCCN)NC(=O)[C@H](CCCCN)NC(=O)[C@H](CO)NC(=O)[C@H](C)NC(=O)[C@H](C)NC1=O)C(C)C)C(C)C)C(C)C [ILPFVAGVAAMEMEHVYCAASKKC] |  |  |  |  |  |  |  |  |  | 1.91 µM (≈ 4.9 µg/mL) | 3.81 µM (≈ 9.79 µg/mL) | 3.81 µM (≈ 9.79 µg/mL) | 3.81 µM (≈ 9.79 µg/mL) |  |
| CC[C@H](C)[C@H](NC(=O)[C@H](C)NC(=O)[C@@H]1CCCN1C(=O)[C@@H](NC(=O)[C@@H](NC(=O)[C@H](Cc1cnc[nH]1)NC(=O)[C@H](CO)NC(=O)[C@H](C)NC(=O)[C@@H](NC(=O)[C@H](CCCCN)NC(=O)[C@H](C)NC(=O)[C@H](CC(C)C)NC(=O)[C@@H](NC(=O)CNC(=O)[C@H](Cc1ccccc1)NC(=O)[C@H](CC(C)C)NC(=O)CN)C(C)C)C(C)C)C(C)C)C(C)C)C(=O)N[C@@H](C)C(=O)N[C@@H](CCC(=O)O)C(=O)N[C@@H](Cc1cnc[nH]1)C(=O)N[C@@H](Cc1ccccc1)C(=O)N[C@@H](CCC(N)=O)C(=O)N[C@@H](C)C(N)=O [GLFGVLAKVASHVVPAIAEHFQA] | ≥ 42.3 µM | ≥ 42.3 µM | ≥ 42.3 µM | ≥ 42.3 µM | ≥ 42.3 µM | ≥ 42.3 µM | > 42.3 µM | 21.2 µM (≈ 50 µg/mL) | 2.54 µM (≈ 6 µg/mL) |  |  |  |  | ≥ 42.3 µM |
| CC[C@H](C)[C@H](N)C(=O)N[C@@H](CC(C)C)C(=O)N1CCC[C@H]1C(=O)N[C@@H](Cc1ccccc1)C(=O)N[C@H](C(=O)N[C@@H](C)C(=O)NCC(=O)N[C@H](C(=O)N[C@@H](C)C(=O)N[C@@H](C)C(=O)N[C@@H](CCC(=O)O)C(=O)N[C@@H](CCSC)C(=O)N[C@@H](CCSC)C(=O)N[C@@H](CCC(=O)O)C(=O)N[C@@H](Cc1cnc[nH]1)C(=O)N[C@H](C(=O)N[C@@H](Cc1ccc(O)cc1)C(=O)N[C@H]1CSSC[C@@H](C(=O)O)NC(=O)[C@H](CCCCN)NC(=O)[C@H](CCCCN)NC(=O)[C@H](CO)NC(=O)[C@H](C)NC(=O)[C@H](C)NC1=O)C(C)C)C(C)C)C(C)C [ILPFVAGVAAEMMEHVYCAASKKC] |  |  |  |  |  |  |  |  |  | 10.2 µM (≈ 26.2 µg/mL) | 5.1 µM (≈ 13.1 µg/mL) | 20.4 µM (≈ 52.4 µg/mL) | 5.1 µM (≈ 13.1 µg/mL) |  |
| CC[C@H](C)[C@H](NC(=O)[C@H](CC(C)C)NC(=O)[C@H](CCCCN)NC(=O)[C@H](C)NC(=O)[C@H](C)NC(=O)CNC(=O)[C@H](CCCCN)NC(=O)[C@@H](NC(=O)[C@H](CC(C)C)NC(=O)[C@@H](NC(=O)[C@H](Cc1ccccc1)NC(=O)[C@H](CC(C)C)NC(=O)CN)[C@@H](C)O)[C@@H](C)CC)C(=O)NCC(=O)N[C@@H](CCCCN)C(=O)N[C@H](C(=O)N[C@H](C(=O)N[C@@H](C)C(=O)N[C@@H](CCCCN)C(=O)N[C@@H](CCC(=O)O)C(=O)N[C@@H](C)C(=O)NCC(=O)N[C@@H](CCCCN)C(=O)N[C@H](C(=O)NCC(=O)N[C@@H](CCCCN)C(=O)N[C@@H](CC(C)C)C(=O)N[C@@H](CCC(=O)O)C(=O)N[C@@H](CCSC)C(=O)N[C@@H](C)C(=O)N[C@H]1CSSC[C@@H](C(=O)O)NC(=O)[C@H](CCC(N)=O)NC(=O)[C@H](CC(N)=O)NC(=O)[C@H]([C@@H](C)O)NC(=O)[C@H]([C@@H](C)CC)NC(=O)[C@H](CCCCN)NC1=O)[C@@H](C)O)[C@@H](C)O)[C@@H](C)O [GLFTLIKGAAKLIGKTTAKEAGKTGKLEMACKITNQC] |  |  |  |  |  |  |  |  |  | 0.573 µM (≈ 2.2 µg/mL) | 1.15 µM (≈ 4.4 µg/mL) | 0.573 µM (≈ 2.2 µg/mL) | 1.15 µM (≈ 4.4 µg/mL) |  |

The next lines start with the values.

| MIC [1] | MIC (Bacillus cereus) | MIC (Listeria innocua) | MIC (Pasteurella multocida) | MIC (Micrococcus luteus) | MIC (Leuconostoc lactis) | MIC (Escherichia coli) | MIC (Staphylococcus aureus) | MIC (Streptococcus uberis) | MIC [2] | MIC [3] | MIC [4] | MIC [5] | MIC (Enterococcus faecalis) | Structure (SMILES) |
| --- | --- | --- | --- | --- | --- | --- | --- | --- | --- | --- | --- | --- | --- | --- |
| 7.37 µM (≈ 12 µg/mL) | 30.7 µM (≈ 50 µg/mL) | ≥ 61.4 µM | ≥ 61.4 µM | 7.37 µM (≈ 12 µg/mL) | 3.68 µM (≈ 6 µg/mL) | > 61.4 µM | 15.3 µM (≈ 25 µg/mL) | 30.7 µM (≈ 50 µg/mL) |  |  |  |  |  | CC[C@H](C)[C@H](NC(=O)[C@@H](NC(=O)[C@H](CO)NC(=O)[C@H](C)NC(=O)[C@@H](NC(=O)[C@H](CCCCN)NC(=O)[C@H](CCCCN)NC(=O)[C@@H](NC(=O)[C@@H](NC(=O)[C@H](CCCCN)NC(=O)[C@H](Cc1ccccc1)NC(=O)[C@H](CC(C)C)NC(=O)CN)C(C)C)[C@@H](C)CC)C(C)C)C(C)C)C(=O)NCC(=O)NCC(=O)N[C@@H](CC(C)C)C(N)=O [GLFKVIKKVASVIGGL] |
| ≥ 41.7 µM | ≥ 41.7 µM | ≥ 41.7 µM | ≥ 41.7 µM | 1.25 µM (≈ 3 µg/mL) | ≥ 41.7 µM | > 41.7 µM | > 41.7 µM | ≥ 41.7 µM |  |  |  |  |  | CC[C@H](C)[C@H](NC(=O)CNC(=O)[C@H](CO)NC(=O)[C@@H](NC(=O)[C@H](CC(C)C)NC(=O)[C@H](CCC(=O)O)NC(=O)[C@H](CO)NC(=O)[C@H](C)NC(=O)[C@H](CCCCN)NC(=O)[C@H](CCC(=O)O)NC(=O)[C@H](CCCCN)NC(=O)[C@@H](NC(=O)[C@H](CCCCN)NC(=O)[C@H](CCC(=O)O)NC(=O)[C@H](Cc1c[nH]c2ccccc12)NC(=O)[C@H](CC(C)C)NC(=O)CN)[C@@H](C)CC)C(C)C)C(=O)N[C@H](C(=O)N[C@@H](CCC(=O)O)C(=O)NCC(=O)N[C@H](C(=O)N[C@@H](CCCCN)C(=O)O)C(C)C)C(C)C [GLWEKIKEKASELVSGIVEGVK] |
| ≥ 38.8 µM | ≥ 38.8 µM | 19.4 µM (≈ 50 µg/mL) | ≥ 38.8 µM | 9.7 µM (≈ 25 µg/mL) | 2.33 µM (≈ 6 µg/mL) | > 38.8 µM | > 38.8 µM | 19.4 µM (≈ 50 µg/mL) |  |  |  |  |  | CC[C@H](C)[C@H](NC(=O)[C@@H](NC(=O)[C@@H]1CCCN1C(=O)[C@@H](NC(=O)[C@@H](NC(=O)[C@H](Cc1cnc[nH]1)NC(=O)[C@@H]1CCCN1C(=O)[C@H](CC(C)C)NC(=O)[C@@H](NC(=O)[C@H](Cc1cnc[nH]1)NC(=O)[C@H](CCCCN)NC(=O)[C@H](C)NC(=O)[C@@H](NC(=O)[C@H](CO)NC(=O)CNC(=O)[C@H](CC(C)C)NC(=O)[C@@H](NC(=O)[C@H](CO)NC(=O)[C@H](CC(C)C)NC(=O)[C@H](CC(C)C)NC(=O)CN)C(C)C)C(C)C)C(C)C)C(C)C)C(C)C)C(C)C)C(=O)N[C@@H](C)C(=O)N[C@@H](CCC(=O)O)C(=O)N[C@@H](CCCCN)C(=O)N[C@@H](CC(C)C)C(N)=O [GLLSVLGSVAKHVLPHVVPVIAEKL] |
